# Experimental data taken from patent US12428415B2, “Matriptase 2 inhibitors and uses thereof” (Disc Medicine, Inc., priority 2018, dated 2025).
# Target: T1, Human Recombinant Matriptase 2 (Homo sapiens, UniProt Q8IU80)
# T1 construct: purchased Enzo Life Sciences (an in-house preparation was also used) ALX-201-752-1
# T1 sequence (Q8IU80 1-811): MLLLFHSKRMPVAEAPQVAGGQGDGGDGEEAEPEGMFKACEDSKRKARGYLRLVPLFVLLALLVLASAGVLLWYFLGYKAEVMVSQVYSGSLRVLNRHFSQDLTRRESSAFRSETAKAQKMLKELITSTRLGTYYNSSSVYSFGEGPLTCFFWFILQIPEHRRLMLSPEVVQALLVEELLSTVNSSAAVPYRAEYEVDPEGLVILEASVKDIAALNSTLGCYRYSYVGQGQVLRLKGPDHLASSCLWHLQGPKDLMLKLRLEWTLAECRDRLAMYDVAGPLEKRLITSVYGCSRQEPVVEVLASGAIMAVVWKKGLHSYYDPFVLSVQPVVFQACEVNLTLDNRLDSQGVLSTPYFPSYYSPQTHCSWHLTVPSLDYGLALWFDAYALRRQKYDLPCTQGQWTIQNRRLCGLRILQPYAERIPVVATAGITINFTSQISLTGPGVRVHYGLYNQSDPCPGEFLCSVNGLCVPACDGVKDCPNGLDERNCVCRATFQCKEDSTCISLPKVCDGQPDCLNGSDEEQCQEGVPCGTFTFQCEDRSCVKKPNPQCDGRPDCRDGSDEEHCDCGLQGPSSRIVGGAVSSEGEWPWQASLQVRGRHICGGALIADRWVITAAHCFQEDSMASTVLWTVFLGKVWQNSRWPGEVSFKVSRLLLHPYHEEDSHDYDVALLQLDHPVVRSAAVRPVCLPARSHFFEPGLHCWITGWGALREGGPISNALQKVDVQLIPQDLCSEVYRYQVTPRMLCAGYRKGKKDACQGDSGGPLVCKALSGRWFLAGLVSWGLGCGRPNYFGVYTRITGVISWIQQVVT
# Test: Matriptase 2 fluorescence based inhibition assay, Method B (50 mM TRIS pH 7.5, 150 mM NaCl, 0.01% gelatin)
# Format: biochemical
# Details: 1 uM compound; Assay Used = B (Method B); read-out: Mar-2 % inhibition at 1 uM
# How it was run: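 Commercial (7 nM) or in-house (15 nM) enzyme preincubated 30 min with compound at 25° C, then 100 μM Boc-Gln-Ala-Arg-AMC added; fluorescence (Ex 360/Em 480 nm) read at 60 min. 1% DMSO final. IC50 from variable-slope sigmoidal fit of % inhibition.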
row,inhibition at 1 µM [%],SMILES
1,75 to 100,N=C(N)c1ccc2cc(C(=O)N[C@H]3CC[C@H](N)CC3)n(Cc3cc(O)cc4ccccc34)c2c1 [Compound I-694]
2,75 to 100,"N=C(N)c1ccc2cc(C(=O)O)n(Cc3cc(O)cc4ccccc34)c2c1 [Compound I-695, 6-carbamimidoyl-1-((3-hydroxynaphthalen-1-yl)methyl)-1H-indole-2-carboxylic Acid]"
3,50 to 75,COC(=O)c1cc2ccc(C(=N)N)cc2n1Cc1cc(O)cc2ccccc12 [Compound I-696]
4,0 to 25,"CO/N=C(\N)c1ccc2cc(C(=O)OC)n(Cc3cccc4ccccc34)c2n1 [Compound I-697, Methyl (Z)-6-(N′-methoxycarbamimidoyl)-1-(naphthalen-1-ylmethyl)-1H-pyrrolo[2,3-b]pyridine-2-carboxylate]"
5,0 to 25,"CO/N=C(/N)c1ccc2cc(C(=O)O)n(Cc3cccc4ccccc34)c2c1 [Compound I-699, (E)-6-(N′-methoxycarbamimidoyl)-1-(naphthalen-1-ylmethyl)-1H-indole-2-carboxylic Acid]"
6,50 to 75,COc1ccccc1Oc1cc(Cn2c(C(=O)N[C@H]3CC[C@H](N)CC3)cc3ccc(C(=N)N)cc32)c2ccccc2c1 [Compound I-700]
7,75 to 100,N=C(N)c1ccc2cc(C(=O)N[C@H]3CC[C@H](N)CC3)n(Cc3ccc(Oc4ccccc4)c4ccccc34)c2c1 [Compound I-701]
8,25 to 50,N=C(N)c1ccc2cc(C(=O)N[C@H]3CC[C@H](N)CC3)n(Cc3cc(N4CCOCC4=O)cc4ccccc34)c2c1 [Compound I-702]
9,50 to 75,N=C(N)c1ccc2cc(C(=O)O)n(Cc3csc4ccccc34)c2c1 [Compound I-703]
10,0 to 25,"CO/N=C(\N)c1ccc2cc(C(=O)O)n(Cc3cccc4ccccc34)c2n1 [Compound I-704, (Z)-6-(N′-methoxycarbamimidoyl)-1-(naphthalen-1-ylmethyl)-1H-pyrrolo[2,3-b]pyridine-2-carboxylic Acid]"
11,50 to 75,N=C(N)c1ccc2cc(C(=O)O)n(Cc3ccc(Oc4ccccc4)c4ccccc34)c2c1 [Compound I-705]
12,25 to 50,N=C(N)c1cc2c(cn1)cc(C(=O)O)n2Cc1cccc2ccccc12 [Compound I-706]
13,75 to 100,N=C(N)c1ccc2cc(C(=O)N[C@H]3CC[C@H](N)CC3)n(Cc3cccc4cc(Oc5ccccc5)ccc34)c2c1 [Compound I-707]
14,25 to 50,COC(=O)c1cc2ccc(C(=N)N)cc2n1Cc1csc2ccccc12 [Compound I-708]
15,25 to 50,COc1ccccc1Oc1cc(Cn2c(C(=O)O)cc3ccc(C(=N)N)cc32)c2ccccc2c1 [Compound I-709]
16,75 to 100,N=C(N)c1ccc2cc(-c3nnnn3CCO)n(Cc3cccc4ccccc34)c2c1 [Compound I-710]
17,25 to 50,N=C(N)c1ccc2cc(C(=O)O)n(Cc3cc(Oc4ccc(-c5ccccc5)cc4)cc4ccccc34)c2c1 [Compound I-711]
18,0 to 25,CCOC(=O)NC(=N)c1ccc2cc(C(=O)O)n(Cc3cccc4ccccc34)c2c1 [Compound I-712]
19,0 to 25,N=C(N)c1cnc2cc(C(=O)O)n(Cc3cccc4ccccc34)c2c1 [Compound I-713]
20,75 to 100,Cc1cnc(-c2cc3ccc(C(=N)N)cc3n2Cc2cccc3ccccc23)[nH]1 [Compound I-714]
21,0 to 25,N=C(N)c1ccc2cc(C(=O)N[C@H]3CC[C@H](N)CC3)n(Cc3cc(Oc4ccc(-c5ccccc5)cc4)cc4ccccc34)c2c1 [Compound I-715]
22,75 to 100,"N=C(N)c1ccc2cc(CC(=O)O)n(Cc3cccc4ccccc34)c2c1 [Compound I-716, 2-(6-carbamimidoyl-1-(naphthalen-1-ylmethyl)-1H-indol-2-yl)acetic Acid]"
23,75 to 100,N=C(N)c1ccc2cc(CC(=O)N[C@H]3CC[C@H](N)CC3)n(Cc3cccc4ccccc34)c2c1 [Compound I-717]
24,0 to 25,"CO/N=C(\N)c1ccc2cc(C(=O)OC)n(Cc3cccc4ccccc34)c2c1 [Compound I-718, methyl (E)-6-(N′-methoxycarbamimidoyl)-1-(naphthalen-1-ylmethyl)-1H-indole-2-carboxylate]"

row,inhibition at 1 µM [%],SMILES
1,75 to 100,N=C(N)c1ccc2cc(C(=O)N[C@H]3CC[C@H](N)CC3)n(Cc3cc(Oc4ccccc4)cc4ccccc34)c2n1 [Compound I-721]
2,75 to 100,N=C(N)c1ccc2cc(C(=O)N[C@H]3CC[C@@H](N)CC3)n(Cc3csc4ccccc34)c2n1 [Compound I-722]
3,75 to 100,CS(=O)(=O)N[C@H]1CC[C@@H](NC(=O)c2cc3ccc(C(=N)N)nc3n2Cc2cccc3ccccc23)CC1 [Compound I-723]
4,50 to 75,N=C(N)c1ccc2cc(C(=O)O)n(Cc3csc4ccccc34)c2n1 [Compound I-724]
5,75 to 100,N=C(N)c1ccc2cc(C(=O)N[C@H]3CC[C@H](N)CC3)n(Cc3cc(Sc4ccccc4)cc4ccccc34)c2c1 [Compound I-725]
6,25 to 50,"N=C(N)c1ccc2cc(N3CCOC3=O)n(Cc3cccc4ccccc34)c2c1 [Compound I-726, 1-(naphthalen-1-ylmethyl)-2-(2-oxooxazolidin-3-yl)-1H-indole-6-carboximidamide]"
7,75 to 100,N=C(N)c1ccc2cc(C(=O)N[C@H]3CC[C@H](N)CC3)n(Cc3cc(S(=O)(=O)c4ccccc4)cc4ccccc34)c2c1 [Compound I-727]
8,75 to 100,CS(=O)(=O)N[C@H]1CC[C@@H](NC(=O)c2cc3ccc(C(=N)N)cc3n2Cc2cccc3ccccc23)CC1 [Compound I-728]
9,50 to 75,N=C(N)c1ccc2cc(C(=O)N[C@H]3CC[C@H](NC=O)CC3)n(Cc3cccc4ccccc34)c2c1 [Compound I-729]
10,50 to 75,N=C(N)c1ccc2cc(C(=O)O)n(Cc3cccc4c(Oc5ccccc5)cccc34)c2c1 [Compound I-730]
11,75 to 100,N=C(N)c1ccc2cc(C(=O)N[C@H]3CC[C@H](N)CC3)n(Cc3cccc4c(Oc5ccccc5)cccc34)c2c1 [Compound I-731]
12,25 to 50,N=C(N)c1ccc2cc(C(=O)O)n(Cc3cc(Oc4ccccc4)cc4ccccc34)c2n1 [Compound I-732]
13,75 to 100,N=C(N)c1ccc2cc(C(=O)N[C@H]3CC[C@H](N)CC3)n(Cc3cc(OCc4ccccc4)cc4ccccc34)c2c1 [Compound I-733]
14,50 to 75,N=C(N)c1ccc2cc(C(=O)N[C@H]3CC[C@H](NC(=O)NC(N)=O)CC3)n(Cc3cccc4ccccc34)c2c1 [Compound I-734]
15,25 to 50,COC(=O)N[C@H]1CC[C@H](NC(=O)c2cc3ccc(C(=N)N)cc3n2Cc2cccc3ccccc23)CC1 [Compound I-735]
16,50 to 75,N=C(N)c1ccc2cc(C(=O)N[C@H]3CC[C@H](NC(N)=O)CC3)n(Cc3cccc4ccccc34)c2c1 [Compound I-736]
17,75 to 100,N=C(N)c1ccc2cc(C(=O)N[C@H]3CC[C@H](N)CC3)n(Cc3cc(OCCc4ccccc4)cc4ccccc34)c2c1 [Compound I-737]
18,75 to 100,CC(C)(C)Sc1cccc2c(Cn3c(C(=O)N[C@H]4CC[C@H](N)CC4)cc4ccc(C(=N)N)cc43)cccc12 [Compound I-739]
19,75 to 100,N=C(N)c1ccc2cc(C(=O)N[C@H]3CC[C@H](N)CC3)n(Cc3cccc4cc(OCc5ccccc5)ccc34)c2c1 [Compound I-740]
20,50 to 75,N=C(N)c1ccc2cc(C(=O)N[C@H]3CC[C@H](Nc4ncccn4)CC3)n(Cc3cccc4ccccc34)c2c1 [Compound I-741]
21,50 to 75,CC(C)(C)S(=O)(=O)c1cccc2c(Cn3c(C(=O)N[C@H]4CC[C@H](N)CC4)cc4ccc(C(=N)N)cc43)cccc12 [Compound I-742]
22,50 to 75,NCc1ccc2cc(C(=O)N[C@H]3CC[C@@H](N)CC3)n(Cc3cccc4ccccc34)c2c1 [Compound I-743]
23,75 to 100,N=C(N)c1ccc2cc(C(=O)O[C@H]3CC[C@@H](N)CC3)n(Cc3cccc4ccccc34)c2c1 [Compound I-744]

row,SMILES,inhibition at 1 µM [%]
1,"CCOC(=O)c1cc2ccc(C(=N)NC(=O)OCC(C)C)cc2n1Cc1cccc2ccccc12 [Compound I-719, Ethyl 6-(N-(isobutoxycarbonyl)carbamimidoyl)-1-(naphthalen-1-ylmethyl)-1H-indole-2-carboxylate]",0 to 25
2,"CCCCCCOC(=O)NC(=N)c1ccc2cc(C(=O)O)n(Cc3cccc4ccccc34)c2c1 [Compound I-720, Potassium 6-(N-((hexyloxy)carbonyl)carbamimidoyl)-1-(naphthalen-1-ylmethyl)-1H-indole-2-carboxylate]",0 to 25

# Same assay, conditions: read-out: Mar-2 % inhibition at 1 uM
row,SMILES,inhibition at 1 µM [%]
1,COC(=O)c1cc2ccc(C(=N)NC(=O)Oc3ccccc3)cc2n1Cc1cccc2ccccc12 [Compound I-738],0 to 25
